According to patent US8735178B2, “Withanolides, probes and binding targets and methods of use thereof” (University of Kentucky Research Foundation, priority 2006, dated 2014):

Key:
soluble hamster vimentin = soluble hamster vimentin (Mesocricetus auratus, UniProt P02544); experiment: In vitro ligand binding assay (WFA-B labelling, streptavidin-HRP blot); conditions: competitor 1 hour, then 0.3 or 1 μM WFA-B 1 hour
Excerpt: The proteins were fractionated by SDS-PAGE, blotted and biotinylated adduct was detected by streptaviding-HRP with chemiluminescence.

[1] = target: T1, tetrameric soluble hamster vimentin (Mesocricetus auratus, UniProt P02544); experiment: In vitro vimentin filament polymerization (transmission electron microscopy); type: biochemical; conditions: 25 μM, 170 mM NaCl, 1 hour at 37° C.
T1 construct: purchased Vimentin Filament Biochemistry Kit, Denver, Colo; Cytoskeleton is named
T1 sequence (P02544 2-465 limits assumed): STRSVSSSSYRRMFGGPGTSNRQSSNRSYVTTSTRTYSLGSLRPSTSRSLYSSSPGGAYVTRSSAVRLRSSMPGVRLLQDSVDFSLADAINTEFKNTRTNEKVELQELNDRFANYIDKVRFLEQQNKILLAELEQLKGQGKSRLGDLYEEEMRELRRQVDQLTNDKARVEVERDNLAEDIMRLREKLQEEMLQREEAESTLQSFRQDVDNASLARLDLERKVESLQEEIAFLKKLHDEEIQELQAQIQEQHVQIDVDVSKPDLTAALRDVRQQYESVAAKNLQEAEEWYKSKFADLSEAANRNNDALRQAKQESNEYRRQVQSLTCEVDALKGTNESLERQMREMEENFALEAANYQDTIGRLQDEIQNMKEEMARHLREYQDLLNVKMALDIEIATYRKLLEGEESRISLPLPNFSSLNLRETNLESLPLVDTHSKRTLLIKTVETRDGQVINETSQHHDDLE
Procedure: FIG. 3a depicts tetrameric soluble hamster vimentin polymerized in the presence of 170 mM NaCl by incubation at 37° C. for 1 hour. The protein was fixed with 0.5% glutaraldehyde, stained with uranyl acetate and observed by transmission electron microscopy.
Tetrameric hamster vimentin was subjected to in vitro filament formation assays using vendor-supplied reagents and instructions (Vimentin Filament Biochemistry Kit, Denver, Colo.). Vimentin (0.5 mg/ml) was mixed with WFA (5 μM or 25 μM), DMSO or 12D-WS (25 μM) in filament polymerization buffer (170 mM NaCl final concentration) and incubated for 1 hour at 37° C. Protein was immediately fixed in 0.5% glutarldehyde and stained with uranyl acetate and applied to copper grids for EM staining (University of Kentucky Core Microscopy and Imaging Facilities). Over 100 grids for each treatment were viewed at 80 kV on a FEI Biotwin 12 transmission electron microscope and 25 representative images were collected. The experiment was repeated in entirety.

bovine 20S proteasome = bovine 20S proteasome (Bos taurus, UniProt Q32KL2); experiment: 20S proteasome enzyme kinetic assay (chymotrypsin-like activity, Suc-LLVY-AMC); type: biochemical
Procedure: The chymotrypsin-like activity was assayed using the fluorogenic peptide substrates Suc-Leu-Leu-Val-Tyr-AMC (Sigma-Aldrich). […] Fluorescence was quantified as arbitrary units and progression curves were plotted for each reaction as a function of time. kobserved/[I] values were obtained using PRISM program by nonlinear least squares fit of the data to the following equation: fluorescence=vst+[(v0−vs)/kobserved][1−exp(−kobserved t)], where v0 and vs are the initial and final velocities, respectively, and kobserved is the reaction rate constant. […] Reactions were performed using inhibitor concentrations that were <100-fold of those of the proteasome assayed.

[2] = system: embryonic fibroblast cell lines MFT-6 (Vim+/+) and MFT-16 (Vim−/−); experiment: Apoptosis by flow cytometry (annexin V-FITC / propidium iodide); type: cell-based, mouse; conditions: 5 μM, 24 hours
Procedure: Referring to FIG. 4c, embryonic fibroblast cell lines derived from vimentin-deficient mice and wild-type littermates were treated with vehicle or 5 μM WFA for 24 hours. Cells were harvested and stained with annexin V-FITC and propidium iodide and extent of apoptosis assessed by flow cytometry. The fold-apoptotis for drug over vehicle-treated samples for each cell line was plotted (n=2 experiments).
To assess the apoptosis activity of WFA, embryonic fibroblast vimentin-deficient cell lines (Vim^−/−; MFT-16) and wild-type (Vim^+/+; MFT-6) cells were treated with 5 μM WFA or an equivalent amount of vehicle (DMSO) for 24 hours at 37° C.-5% CO2 conditions in complete medium. Apoptotic cells were measured by using the VYBRANT™ Apoptosis Assay Kit (Molecular Probes) according to the manufacturer's instructions. Flow cytometric analysis was conducted at the University of Kentucky Core Flow Cytometry Center.

[3] = system: corneal neovascularization; experiment: Injury-induced corneal neovascularization assay in mice; type: in vivo, mouse; conditions: 2 mg/kg i.p. daily for 10 days
Excerpt: Since WFA exerts potent angiogenesis inhibitory activity in vivo, drug activity on de novo capillary growth in vimentin deficiency was investigated.
Vimentin homozygous-deficient mice (vim^−/−) and vimentin-heterozygous-deficient mice (vim^+/−) in the 129/Svev background were obtained from David Markovitz (University of Michigan Medical Center) and breeding colonies established at the University of Kentucky. All mice were housed in specific pathogen-free cages in designated lab animal housing facilities. Age-matched littermates were genotyped by polymerase chain reaction, as described, and vim^−/− and vim^+/+ mice were employed for corneal vascularization experiments. In brief, mice between 4-6 weeks of age were anesthetized by intraperiteoneal injection (i.p.) of ketamine and xylazine. Corneas were topically anesthetized by application of proparacain drop and 1 microliter drop of dilute 0.1 M sodium hydroxide was applied for 1 minute. […] Upon recovery from anesthesia, mice were replaced in cages and monitored by trained personnel for resumption of normal activity. […] Fluorescence was quantified by importing images in NIH ImageJ, as taught by Ambati, B. K. et al., Sustained inhibition of corneal neovascularization by genetic ablation of CCR5, Invest. […]

vimentin in HUVECs = experiment: Western blot of soluble vimentin in WFA-treated HUVECs; type: cell-based, human
Procedure: (§1) BAECs treated with DMSO (FIGS. 3e, 3g, 3i) or 3 μM WFA (FIGS. 3f, 3h, 3j) for 18 hours were stained for vimentin using a monoclonal anti-vimentin antibody (green) and co-stained with phalloidin-rhodamine (red). The vimentin (FIGS. 3e, 3f) and phalloidin-stained images (FIGS. 3g, 3h), in fluorescence overlap, reveal the presence of numerous cytoplasmic particulate granules that co-stain for vimentin and disrupted F-actin in WFA-treated cells compared to controls (FIGS. 3i, 3j). […] FIG. 3l depicts higher concentrations and longer periods of exposure to WFA (4 hours) cause reduction in levels of the 56 kDa protein (asterisk) and increased abundance of cleavage products of vimentin (arrows).
As it became apparent that vimentin targeting by WFA may initiate signaling events leading to cellular apoptosis, the effect of WFA on soluble tetrameric vimentin was investigated. Using western blot analysis of soluble proteins from HUVECs treated with WFA, dose-dependent (above 2 μM) increases in vimentin cleavage products became detectable by 2 hours after drug treatment (FIGS. 3k and 3l).
After treatments, cells were washed in PBS and extracts having equal amounts of proteins were subjected to SDS-PAGE on 4-20% Tris-glycine gels (BioEpress) and transferred to Immun-Blot PVDF membrane (Bio-Rad) using standard techniques. […]

[4] = system: MCF-7 cells transfected with human vimentin cDNA; experiment: Polyubiquitinated proteins in vimentin-transfected MCF-7 cells (anti-ubiquitin blot); type: cell-based; conditions: 2 μM, not in vector controls
Procedure: Employing the widely used MCF-7 vimentin-deficient model of Bar, H. et al., Forced expression of desmin and desmin mutants in cultured cells: impact of myopathic missense mutations in the central coiled-coil domain on network formation, Exp. Cell. […] MCF-7 cells that lack endogenous IF proteins were transfected with human vimentin cDNA or a vector control and after 24 hours cells were treated with either vehicle or 2 μM WFA for 1 hour. Cell lysates were prepared and equal amounts of protein subjected to SDS-PAGE and protein blots probed with anti-ubiquitin antibody. Blots were re-probed with anti-GAPDH antibody.
MCF-7 cells were transfected with a pCMV6-XL5 vector containing the human vimentin cDNA under CMV promoter according to vendor instructions (Origene). Control samples were transfected with an empty vector (PCMV6-XL4). Transfected cells were allowed to recover for 12 hours and subsequently treated with 2 μM WFA for 18 hours. Equal amounts of protein lysates were then subjected to western blotting and probed with mouse monoclonal antibody against ubiquitin proteins.

BAECs = experiment: Immunostaining of vimentin and actin in BAECs; type: cell-based, bovine; conditions: 3 μM, 18 hours
Procedure: as §1
To further corroborate that vimentin aggregation by WFA treatment is associated with perturbation of the cytoskeleton structure, the drug effects in BAECs were investigated by immunostaining. […] Importantly, these vimentin particulates strongly co-stain for actin (compare FIG. 3h with FIG. 3j), exemplifying the role of the WFA-binding domain in control of cytoskeletal structure through the actin-binding activity of vimentin 2B domain.
After treatments, BAECs were washed with PBS and fixed with 4% paraformaldehyde for 5 minutes. Cells were then permeabilized with 0.1% Triton-X in PBS for 20 minutes at 4° C. and blocked for 30 minutes in 3% BSA to prevent nonspecific binding. […]

[5] = target: purified hamster vimentin (Mesocricetus auratus, UniProt P02544); experiment: LC-MS/MS mapping of the residue covalently modified by WFA; type: binding; conditions: tryptic digestion, molecular mass shift of 470
purified hamster vimentin, sequence (P02544 whole entry): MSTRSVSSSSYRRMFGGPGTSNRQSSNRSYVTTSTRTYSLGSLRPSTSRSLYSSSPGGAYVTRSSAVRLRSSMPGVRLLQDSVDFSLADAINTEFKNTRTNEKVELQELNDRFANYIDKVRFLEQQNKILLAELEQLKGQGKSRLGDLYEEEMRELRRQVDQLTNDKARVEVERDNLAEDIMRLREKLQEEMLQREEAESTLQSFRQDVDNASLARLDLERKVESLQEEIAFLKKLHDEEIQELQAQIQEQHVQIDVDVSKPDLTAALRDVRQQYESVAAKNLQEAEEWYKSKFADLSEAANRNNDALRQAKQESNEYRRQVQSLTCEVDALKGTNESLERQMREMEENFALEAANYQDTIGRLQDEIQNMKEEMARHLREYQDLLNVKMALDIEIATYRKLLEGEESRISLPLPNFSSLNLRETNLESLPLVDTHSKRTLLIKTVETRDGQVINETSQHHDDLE
Procedure: Next, to identify the amino acid residue(s) of vimentin covalently modified by WFA, purified hamster vimentin was incubated with WFA and the protein-ligand complexes subjected to tryptic digestion and LC-MS/MS analysis. […] A three-dimensional model of the WFA-vimentin complex was developed using x-ray crystal structures of vimentin and WFA. […] In this simulated model, the C3 and C6 carbons of WFA lie in close proximity to the cysteine residue in the vimentin A-helix (FIG. 2b), permitting a nucleophilic attack by this thiol group on the electrophilic carbon centers (FIG. 2c). Remarkably, the amino acid residues of vimentin (Gln324, Cys328 and Asp 331) that make contact with WFA (FIG. 2c) are identical from fish to mammals, as shown in the table below.

[6] = target: T2, 56 kDa protein (vimentin) in HUVECs (Homo sapiens, UniProt P08670); experiment: WFA-B labelling of proteins in HUVECs (streptavidin-HRP blot); type: binding; conditions: WFA-B 2 hours, WFA-competitive
T2 construct: host or cells: HUVECs
T2 sequence (P08670 whole entry): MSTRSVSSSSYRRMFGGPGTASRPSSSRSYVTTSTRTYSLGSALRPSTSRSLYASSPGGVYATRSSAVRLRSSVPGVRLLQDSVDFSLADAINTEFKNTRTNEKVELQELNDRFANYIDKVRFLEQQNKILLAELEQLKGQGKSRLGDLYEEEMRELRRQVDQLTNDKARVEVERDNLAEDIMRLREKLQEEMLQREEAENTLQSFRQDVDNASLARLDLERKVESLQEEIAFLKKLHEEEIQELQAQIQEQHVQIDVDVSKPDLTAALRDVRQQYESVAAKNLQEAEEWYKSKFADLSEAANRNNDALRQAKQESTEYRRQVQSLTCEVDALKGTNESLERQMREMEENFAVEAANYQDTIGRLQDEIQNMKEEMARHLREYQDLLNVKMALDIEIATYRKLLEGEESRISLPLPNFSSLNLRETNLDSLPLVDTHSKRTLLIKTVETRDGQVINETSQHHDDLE
Procedure: LC-MS/MS characterization of this protein identified the 56 kDa protein as vimentin (27% protein coverage), an IF protein that is abundant in mesenchymal cells. To further support that vimentin is bound by WFA-B in vivo, HUVECs were treated with WFA-B in the presence and absence of unconjugated WFA, and total cellular lysates were gel-fractionated and protein blots probed with streptavidin-HRP. […] This experiment was conducted using cells preincubated with DMSO or WFA for 30 minutes and subsequently with WFA-B for 2 hours. Soluble proteins extracted in 1% Triton X-100 were fractionated by SDS-PAGE and blotted. This blot, as well as those of FIGS. 1d and 1e, were developed with Streptavidin-HRP. Biotin label is incorporated in this 56 kDa protein in a WFA-competitive manner.
As shown in the blot of FIG. 1d, WFA-B binds vimentin in HUVECs. The blot of FIG. 1d was produced using cell cultures preincubated with DMSO (Veh) or with 5 μM WFA or 1 μM (WFA*) for 30 minutes and subsequently with 5 μM WFA-B for 2 hours.

soluble hamster vimentin, sequence (P02544 whole entry): as the sequence (P02544 whole entry) above

SMILES	in vitro binding to vimentin (soluble hamster vimentin)	effect on vimentin polymerization [1]	inhibition of the 20S proteasome's major catalytic function (bovine 20S proteasome; 10 μM)	Kobs/[I], efficiency of inactivation (bovine 20S proteasome; WFA 0.5-10 μM, epoxomicin 10-75 nM)	rate of apoptosis, wild-type cells versus vimentin-deficient cells [2]	inhibition of neovascularization ([3]; vimentin-null mice, n=10, P=0.005)	inhibition of neovascularization ([3]; wild-type mice, n=8, P=0.002)	concentration giving dose-dependent increases in vimentin cleavage products (vimentin in HUVECs; detectable by 2 hours)	levels of polyubiquitinated proteins [4]	vimentin filament phenotype (BAECs)	covalent modification of cysteine residue at position 327 [5]	effect on full-length vimentin isoforms (two-dimensional western blot) (vimentin in HUVECs; data not shown)	binding to 56 kDa protein in cells [6]
CC1=C(CO)C(=O)O[C@@H]([C@@H](C)[C@H]2CC[C@H]3[C@@H]4[C@@H]5O[C@@H]5[C@@]5(O)CC=CC(=O)[C@]5(C)[C@H]4CC[C@]23C)C1 [12-D WS]	lack of in vitro binding activity	does not disrupt vimentin polymerization											
CC1=C(CO)C(=O)O[C@@H]([C@@H](C)[C@H]2CC[C@H]3[C@@H]4C[C@H]5O[C@]56[C@@H](O)C=CC(=O)[C@]6(C)[C@H]4CC[C@]23C)C1 [WFA, Withaferin A]		produces extensive filamentous aggregates	minimally inhibits	340±80 M^−1S^−1	7 fold	29%	73%	above 2 μM	increases levels of polyubiquitinated proteins	condensation of vimentin filaments around the perinuclear region	uniquely modified by WFA		
CC1=C(COC(=O)CNC(=O)CCCCCNC(=O)CCCCCNC(=O)CCCCC2SCC3NC(=O)NC32)C(=O)OC([C@@H](C)C2CCC3C4C[C@H]5O[C@]56C(O)C=CC(=O)[C@]6(C)C4CC[C@@]32C)C1 (stereo partly drawn) [WFA-B, WFA-Gly-LC-LC-biotin]	bound by WFA-B in a WFA-competitive manner											causes several full-length (˜53-56 kDa) isoforms of vimentin to disappear	binds to the 56 kDa protein in HUVECs
